# According to paper PMC6321231, “Synthesis and Anti-Inflammatory Activities of Phloroglucinol-Based Derivatives” (Molecules, 2018):
# Legend:
# NF-κB = test: Assay for NF-κB inhibition (luciferase reporter) in PMA-induced SW1353 cells; assay type: cell-based; details: PMA-induced human chondrosarcoma cells (SW1353); NA = not active at 100 µM
# Method: The assay was performed in human chondrosarcoma cells (SW1353, obtained from American Type Culture Collection (ATCC), Manassas, VA, USA). Cells were cultured in 1:1 mixture of DMEM/F12 supplemented with 10% fetal bovine serum (FBS), 100 U/mL penicillin G sodium, and 100 μg/mL streptomycin at 37 °C in an atmosphere of 5% CO2 and 95% humidity. Cells (1.2 × 10^7) were washed once in an antibiotic and FBS-free DMEM/F12, and then resuspended in 500 μL of antibiotic-free DMEM/F12 containing 2.5% FBS. NF-κB luciferase plasmid construct was added to the cell suspension at a concentration of 50 μg/mL and incubated for 5 min at room temperature. The cells were electroporated at 160 V and one 70-ms pulse using BTX disposable cuvettes model 640 (4-mm gap) in a BTX Electro Square Porator T 820 (BTX I, San Diego, CA, USA). The transfected cells were plated to the wells of 96-well plates at a density of 1.25 × 10^5 cells per well. After 24 h, cells were treated with different concentrations of test compound for 30 min before the addition of PMA (70 ng/mL) and incubated for 8 h. Luciferase activity was measured using the Luciferase Assay kit (Promega). Light output was detected on a SpectraMax plate reader. Percent inhibition of luciferase activity was calculated as compared to vehicle control, and IC50 values were obtained from concentration response curves. Parthenolide was used as positive control.
# Cryptococcus neoformans = tested on: Cryptococcus neoformans; parameters: method as in PMID 27584935; details: against Cryptococcus neoformans; cited from earlier work
# iNOS = test: Assay for iNOS inhibition (nitrite by Griess reagent) in LPS-induced macrophages; assay type: cell-based; details: Mus musculus, RAW264.7; LPS-induced RAW 264.7 macrophages; NA = not active at 50 µM
# Method: The assay was performed in mouse macrophages (RAW264.7, obtained from ATCC)) cultured in phenol red free RPMI medium supplemented with 10% bovine calf serum and 100 U/mL penicillin G sodium, and 100 μg/mL streptomycin at 37 °C in an atmosphere of 5% CO2 and 95% humidity. Cells were seeded in 96-well plates (50,000 cells/well) and incubated for 24 h for a confluency of 75% or more. Test samples diluted in serum free medium were added, and after 30 min of incubation, LPS (5 μg/mL) was added and cells were further incubated for 24 h. The concentration of nitric oxide (NO) was determined by measuring the level of nitrite in the cell culture supernatant by using Griess reagent. Percent inhibition of nitrite production by the test compound was calculated in comparison to the vehicle control. IC50 values were obtained from concentration response curves. Parthenolide was used as a positive control.
IC50 (NF-κB) [µM],IC50 (iNOS) [µM],SMILES,in vitro antifungal activity (Cryptococcus neoformans)
34 ± 8.5,19 ± 1.4,CC(=O)c1c(O)cc(O)c(C(C)=O)c1O [Compound 2],potent
90 ± 14.1,–,CC(C)C(=O)c1c(O)cc(O)cc1O [Compound 3],–
37.5 ± 3.5,19.5 ± 0.7,"CC(C)C(=O)c1c(O)cc(O)c(Cc2ccc(Br)cc2)c1O [Compound 4, 1-[3-(4-Bromo-benzyl)-2,4,6-trihydroxy-phenyl]-2-methyl-propan-1-one]",–
29 ± 15.5,50,"COCOc1cc(OCOC)c(C(=O)C(C)C)c(O)c1Cc1ccc(Br)cc1 [Compound 5, 1-[3-(4-Bromo-benzyl)-2-hydroxy-4,6-bis-methoxymethoxy-phenyl]-2-methyl-propan-1-one]",–
85 ± 21.2,19 ± 1.4,"CC(C)C(=O)c1c(O)cc(O)c(Cc2ccc(Cc3c(O)cc(O)c(C(=O)C(C)C)c3O)cc2)c1O [Compound 6, 2-Methyl-1-{2,4,6-trihydroxy-3-[4-(2,4,6-trihydroxy-3-isobutyryl-benzyl)-benzyl]-phenyl}-propan-1-one]",–
–,49 ± 1.4,"CC(C)C(=O)c1c(O)cc(O)c(Cc2ccc(CN3CCCCC3)cc2)c1O [Compound 7, 2-Methyl-1-[2,4,6-trihydroxy-3-(4-piperidin-1-ylmethyl-benzyl)-phenyl]-propan-1-one]",–
20.5 ± 2.9,2.5 ± 0.2,"C=C1C(=O)O[C@H]2[C@H]1CC/C(C)=C/CC[C@@]1(C)O[C@@H]21 [Parthenolide, reference compound]",–
